Results reported in ChEMBL document CHEMBL3885881, “DrugMatrix”.

Species: Rattus norvegicus
Test: DrugMatrix - Regimen: Daily Repeat
Assay type: toxicity, organism-based, Sprague-Dawley
Parameters: regimen Daily Repeat, gender Male, age 6-8 weeks
Conditions: in vivo, po, route oral GAVAGE, vehicle 100 % WATER; for ABSOLUTE BASOPHIL / ABSOLUTE EOSINOPHIL / ABSOLUTE LYMPHOCYTE / ABSOLUTE MONOCYTE / ABSOLUTE SEGMENTED NEUTROPHIL / BASOPHIL / EOSINOPHIL / ERYTHROCYTE COUNT / HEMATOCRIT / HEMOGLOBIN / LEUKOCYTE COUNT / LYMPHOCYTE / MEAN CORPUSCULAR HEMOGLOBIN / MEAN CORPUSCULAR HEMOGLOBIN CONCENTRATION / MEAN CORPUSCULAR VOLUME / MONOCYTE / NEUTROPHIL / NUCLEATED RED BLOOD CELLS / PLATELET COUNT: tissue Blood; for ALANINE AMINOTRANSFERASE / ALBUMIN / ALKALINE PHOSPHATASE / ASPARTATE AMINOTRANSFERASE / BLOOD UREA NITROGEN / CARBON DIOXIDE / CHLORIDE / CHOLESTEROL / CREATINE PHOSPHOKINASE / CREATININE / GLUCOSE / LACTATE DEHYDROGENASE / LIPASE / PHOSPHORUS / POTASSIUM / SODIUM / TOTAL BILIRUBIN / TOTAL PROTEIN / URIC ACID: tissue Plasma
[1] = 0 mg/kg, 72 h, dose level Control, time 3 day
[2] = 0 mg/kg, 120 h, dose level Control, time 5 day
[3] = 10 mg/kg, 72 h, dose level Low, time 3 day

## NNc1nncc2ccccc12 [HYDRALAZINE]
[1]
  ABSOLUTE BASOPHIL: 0 CELLS/uL
  ABSOLUTE EOSINOPHIL: 20.17 CELLS/uL
  ABSOLUTE LYMPHOCYTE: 12371.67 CELLS/uL
  ABSOLUTE MONOCYTE: 166 CELLS/uL
  ABSOLUTE SEGMENTED NEUTROPHIL: 1292.17 CELLS/uL
  BASOPHIL: 0%
  EOSINOPHIL: 0.17%
  ERYTHROCYTE COUNT: 5.46 x10E6/uL
  HEMATOCRIT: 34.38%
  HEMOGLOBIN: 13.32 G/DL
  LEUKOCYTE COUNT: 13.85 x10E3/uL
  LYMPHOCYTE: 88.5%
  MEAN CORPUSCULAR HEMOGLOBIN: 24.42 pg
  MEAN CORPUSCULAR HEMOGLOBIN CONCENTRATION: 38.7 G/DL
  MEAN CORPUSCULAR VOLUME: 63.07 fL
  MONOCYTE: 1.17%
  NEUTROPHIL: 10.17%
  NUCLEATED RED BLOOD CELLS: 0.17 /100WBC
  PLATELET COUNT: 1193.5 x10E3/uL
  ALANINE AMINOTRANSFERASE: 54.5 u/L
  ALBUMIN: 4.02 G/DL
  ALKALINE PHOSPHATASE: 346.5 u/L
  ASPARTATE AMINOTRANSFERASE: 103.17 u/L
  BLOOD UREA NITROGEN: 16.5 mg/dL
  CARBON DIOXIDE: 29.83 mmol/L
  CHLORIDE: 99.5 MEQ/L
  CHOLESTEROL: 72.5 mg/dL
  CREATINE PHOSPHOKINASE: 532.5 u/L
  CREATININE: 0.18 mg/dL
  GLUCOSE: 168.5 mg/dL
  LACTATE DEHYDROGENASE: 536.5 u/L
  LIPASE: 11.17 u/L
  PHOSPHORUS: 11.48 mg/dL
  POTASSIUM: 5.95 MEQ/L
  SODIUM: 140.5 MEQ/L
  TOTAL BILIRUBIN: 0.18 mg/dL
  TOTAL PROTEIN: 5.77 G/DL
  URIC ACID: 1.42 mg/dL
[2]
  ABSOLUTE BASOPHIL: 0 CELLS/uL
  ABSOLUTE EOSINOPHIL: 22.83 CELLS/uL
  ABSOLUTE LYMPHOCYTE: 12202.83 CELLS/uL
  ABSOLUTE MONOCYTE: 158 CELLS/uL
  ABSOLUTE SEGMENTED NEUTROPHIL: 1283 CELLS/uL
  BASOPHIL: 0%
  EOSINOPHIL: 0.17%
  ERYTHROCYTE COUNT: 5.88 x10E6/uL
  HEMATOCRIT: 36.62%
  HEMOGLOBIN: 14.07 G/DL
  LEUKOCYTE COUNT: 13.67 x10E3/uL
  LYMPHOCYTE: 89.5%
  MEAN CORPUSCULAR HEMOGLOBIN: 23.95 pg
  MEAN CORPUSCULAR HEMOGLOBIN CONCENTRATION: 38.43 G/DL
  MEAN CORPUSCULAR VOLUME: 62.28 fL
  MONOCYTE: 1.17%
  NEUTROPHIL: 9.17%
  NUCLEATED RED BLOOD CELLS: 0.17 /100WBC
  PLATELET COUNT: 1198 x10E3/uL
  ALANINE AMINOTRANSFERASE: 51 u/L
  ALBUMIN: 4.3 G/DL
  ALKALINE PHOSPHATASE: 343 u/L
  ASPARTATE AMINOTRANSFERASE: 89.83 u/L
  BLOOD UREA NITROGEN: 17.67 mg/dL
  CARBON DIOXIDE: 27.17 mmol/L
  CHLORIDE: 98.33 MEQ/L
  CHOLESTEROL: 82.5 mg/dL
  CREATINE PHOSPHOKINASE: 533.33 u/L
  CREATININE: 0.18 mg/dL
  GLUCOSE: 152.67 mg/dL
  LACTATE DEHYDROGENASE: 220.33 u/L
  LIPASE: 11.5 u/L
  PHOSPHORUS: 11.25 mg/dL
  POTASSIUM: 6.29 MEQ/L
  SODIUM: 140.53 MEQ/L
  TOTAL BILIRUBIN: 0.22 mg/dL
  TOTAL PROTEIN: 6.12 G/DL
  URIC ACID: 1.42 mg/dL
[3]
  ABSOLUTE BASOPHIL: 0 CELLS/uL
  ABSOLUTE EOSINOPHIL: 33.33 CELLS/uL
  ABSOLUTE LYMPHOCYTE: 12179.67 CELLS/uL
  ABSOLUTE MONOCYTE: 152 CELLS/uL
  ABSOLUTE SEGMENTED NEUTROPHIL: 1268.33 CELLS/uL
  BASOPHIL: 0%
  EOSINOPHIL: 0.33%
  ERYTHROCYTE COUNT: 5.03 x10E6/uL
  HEMATOCRIT: 31.97%
  HEMOGLOBIN: 12.87 G/DL
  LEUKOCYTE COUNT: 13.63 x10E3/uL
  LYMPHOCYTE: 89.67%
  MEAN CORPUSCULAR HEMOGLOBIN: 25.6 pg
  MEAN CORPUSCULAR HEMOGLOBIN CONCENTRATION: 40.27 G/DL
  MEAN CORPUSCULAR VOLUME: 63.57 fL
  MONOCYTE: 1%
  NEUTROPHIL: 9%
  NUCLEATED RED BLOOD CELLS: 0 /100WBC
  PLATELET COUNT: 1225.67 x10E3/uL
  ALANINE AMINOTRANSFERASE: 46.67 u/L
  ALBUMIN: 3.87 G/DL
  ALKALINE PHOSPHATASE: 333.67 u/L
  ASPARTATE AMINOTRANSFERASE: 83.33 u/L
  BLOOD UREA NITROGEN: 16 mg/dL
  CARBON DIOXIDE: 30.33 mmol/L
  CHLORIDE: 100.33 MEQ/L
  CHOLESTEROL: 61.33 mg/dL
  CREATINE PHOSPHOKINASE: 318 u/L
  CREATININE: 0.15 mg/dL
  GLUCOSE: 154 mg/dL
  LACTATE DEHYDROGENASE: 304.33 u/L
  LIPASE: 10.33 u/L
  PHOSPHORUS: 11.37 mg/dL
  POTASSIUM: 6.36 MEQ/L
  SODIUM: 141.6 MEQ/L
  TOTAL BILIRUBIN: 0.2 mg/dL
  TOTAL PROTEIN: 5.7 G/DL
  URIC ACID: 1.67 mg/dL
